Source: publication PMC9912809 (Inorganic chemistry, 2022)
Read-outs that look alike come from different tables or passages of the source. Values belong to the molecule of their own block, whether it stands above or below them.

How the values were obtained:
[1] = logP by potentiometric octanol/water titration; type: physicochemical
GLO1 = biological target: T1, GLO1 (Homo sapiens, UniProt Q04760); test: Thermal shift assay; type: binding; settings: thermal shift assay (Table S7)
T1 sequence (Q04760 2-184 limits assumed): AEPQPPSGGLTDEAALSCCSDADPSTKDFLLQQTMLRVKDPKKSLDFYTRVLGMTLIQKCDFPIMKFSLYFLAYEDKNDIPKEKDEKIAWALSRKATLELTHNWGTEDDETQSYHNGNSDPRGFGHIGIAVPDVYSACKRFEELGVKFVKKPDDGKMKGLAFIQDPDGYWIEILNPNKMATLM

[2] = biological target: Human recombinant MMP-2 catalytic domain (Homo sapiens, UniProt P08253); test: MMP-2 fluorogenic substrate inhibition assay; settings: for Percent inhibition MMP-2: SD of triplicate in parentheses
Human recombinant MMP-2 catalytic domain, sequence (P08253 110-452 limits assumed): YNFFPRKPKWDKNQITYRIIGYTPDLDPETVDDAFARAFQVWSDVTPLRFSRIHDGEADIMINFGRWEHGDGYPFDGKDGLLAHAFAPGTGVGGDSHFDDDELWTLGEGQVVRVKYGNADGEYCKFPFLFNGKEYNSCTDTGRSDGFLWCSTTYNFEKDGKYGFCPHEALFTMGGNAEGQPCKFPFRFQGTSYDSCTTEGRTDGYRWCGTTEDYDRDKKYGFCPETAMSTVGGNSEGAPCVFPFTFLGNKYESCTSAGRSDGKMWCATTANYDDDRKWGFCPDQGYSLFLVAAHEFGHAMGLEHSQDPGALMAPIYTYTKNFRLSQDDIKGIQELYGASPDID

[3] = biological target: T2, Recombinant human glyoxalase I (GLO1) (Homo sapiens, UniProt Q04760); test: GLO1 inhibition assay; type: biochemical
T2 sequence (Q04760 2-184 limits assumed): T1 sequence (Q04760 2-184 limits assumed)

[4] = biological target: Human carbonic anhydrase II (hCAII) (Homo sapiens, UniProt P00918); test: hCAII inhibition assay; type: biochemical
[5] = pKa determination with SiriusT3; type: physicochemical; settings: SiriusT3, range pH 2.0 – 12.0, 0.15 M KCl
[6] = 200 μM, SD of triplicate in parentheses

SMILES: Oc1cccc2cccnc12 [8-HQ, 8-Hydroxyquinoline, reference compound]
- logP ([1]; octanol/water): 1.86
- logD ([1]; octanol/water, pH 7.4): 1.85
- ΔTM of MBI-bound GLO1 vs native, unbound GLO1 (GLO1): > 3 °C
- IC50 [2]: 166 µM
- inhibition at 200 µM ([2]; read-out: Percent inhibition MMP-2): 57%
- inhibition at 200 µM ([3]; read-out: Percent inhibition GLO1): 95%
- inhibition at 200 µM ([4]; read-out: Percent inhibition hCAII): < 5%

SMILES: COCCCn1ccc2cc(-c3cc(-c4ccccc4)cc(=O)n3O)cnc21 [Chugai-3d, reference compound]
- Inhibition of GLO1 by positive control ([3]; 50 μM final concentration): complete inhibition

SMILES: COc1ccc(S(=O)(=O)N(CC(=O)NO)CC(C)C)cc1 [NNGH, reference compound]
- Inhibition of MMP-2 by positive control ([2]; 50 μM final concentration): complete inhibition

Now from value to molecule:

- Reduction of MMP-2 inhibition activity compared to 8-HQ ([2]; 200 μM): > 50%
- Percent inhibition MMP-2 ([2]; 200 μM): 26 (7) %
- Reduction of GLO1 inhibition activity compared to 8-HQ ([3]; 200 μM): > 50%
- Percent inhibition GLO1 [3, 6]: <5%
SMILES: Oc1ccc2ncccc2c1 [Compound 32]

- Measured logD7.4 ([1]; derived from measured pKa and logP, pH 7.4): 0.99
- Measured logP ([1]; octanol/water, potentiometric, SiriusT3): 1.01
- Percent inhibition MMP-2 ([2]; 200 μM): 59 (2) %
- IC50 ([2]; read-out: IC50 MMP-2, dose-response 10 μM to 1000 or 1500 μM (Figure S2)): 154 ± 9.8 µM
- Measured pKa1 (conjugated acid, protonated nitrogen of heteroaromatic ring) [5]: 3.17
- Measured pKa2 (hydroxyl group or its isosteric replacement) [5]: 8.97
- Percent inhibition hCAII [4, 6]: <5%
SMILES: CS(=O)(=O)Nc1cccc2cccnc12 [MBI 18]
